# Test results as given in patent publication US20130005696A1, “BUFADIENOLIDE DERIVATIVES, PREPARING PROCESS THEREOF, COMPOSITION COMPRISING THE SAME AND THE USE THEREOF” (priority 2011, published 2013).
# Test system: human-derived leukaemia MV-4-11 xenograft
# Test: Therapeutic effect against MV-4-11 xenograft in nude mice
# Assay type: in vivo, Balb/c nude mice
# Details: for Inhibition Rate (%): 4 mg/kg
# Protocol: This experiment is to investigate the in vivo inhibitory effect of II1E-01.HCl on growth of human-derived hepatic carcinoma HepG2 cell, human-derived breast carcinoma MDA-MB-231 cell, human-derived lung carcinoma H460 cell, human-derived colon carcinoma HCT-116 cell, human-derived […] MV-4-11 cell xenografts in nude mice.
# Formulation of solvent control (5% anhydrous ethanol & 5% aqueous glucose solution): 2.5 mL anhydrous ethanol was added into a 50 mL tube, followed by addition of 47.5 mL 5% glucose solution for injection followed by shaking, and stored at room temperature before use.
# Formulation of the preparations of the compounds to be tested: formulations with concentrations of 0.4 mg/mL and 0.6 mg/mL were prepared respectively. An appropriate amount of II1E-01.HCl was weighted and put into a 50 mL tube, followed by addition of corresponding volume of solvent to get the desired concentration and mixed using a vortex mixer. After the solid was dissolved completely, the solution was subpackaged into 4 mL vials and stored at refrigerated condition (2-8° C.) until use.
# Experimental animals: Balb/c nude mice (male, six weeks old).
# MV-4-11 cells were in vitro cultured to be proliferated. The cells in the log phase of growth were collected and resuspended in IMDM serum-free medium, and then implanted subcutaneously into the axilla of the right forelimb of nude mice. After 37 days, the tumor size reached about 270 mm^3. The mice bearing the tumor were grouped by randomized block method according to the tumor size into 3 groups, which contain 6 mice in each group and include the group of solvent control, group of positive control (Sunitinib 40 mg/kg), and group of the testing compound II1E-01.HCl (4 mg/kg QOD). In the positive control group, sunitinib was administered intragastrically once daily (QD). In the group of II1E-01.HCl, II1E-01.HCl was administered intravenously at tail once every other day (QOD). The animals were given the drugs for 21 days, during which the growth of tumor and the body weight of the mice were observed.
# After continuously administering for 21 days (the 58th day after the implantation), the tumor weight and inhibition rate were calculated, and results are listed in Table 9. […] In the group of the testing compound II1E-01.HCl (4 mg/kg QOD), the tumor also completely disappeared at 14th day after administration, and the inhibition rate was 100.00% (P<0.01) at the end of the experiment.
smiles,measurement,setting,value
C[C@]12CC[C@H](OC(=O)NC3CCNCC3)C[C@H]1CC[C@@H]1[C@@H]2CC[C@]2(C)[C@@H](c3ccc(=O)oc3)CC[C@]12O.Cl [II1E-01•HCl],day after administration at which the tumor completely disappeared,4 mg/kg iv QOD,14 days
same,Tumor Weight(g) Mean ± SE,"4 mg/kg iv, QOD × 21 d",0.0000 ± 0.0000 g
same,Inhibition Rate (%),"4 mg/kg iv, QOD × 21 d",100.00%
same,Inhibition Rate (%),"4 mg/kg iv, QOD × 21 d, listed as II1E-01.HCl",100.00%
